We go through 2 compounds from patent publication EP0041047A2, “Dioxide compounds, process for their preparation and their use” (CIBA-GEIGY AG, priority 1980, dated 1981).

The test system of one assay is Morganella morganii 2359. Description: Protection of infected mice, subcutaneous application (ED50). It counts as in vivo. Conditions: infecting microorganism Morganella morg. 2359. An excerpt: (§1) Aufgrund dieser ß-Lactamase-inhibierenden Wirkung erhöhen die Verbindungen der vorliegenden Erfindung die Wirkung von β-Lactamantibiotika in vitro und in vivo, wie durch Vergleich der antibiotischen Wirkungen von Verbindungen der vorliegenden Erfindung und von β-Lactamantibiotika allein und in Kombination miteinander festgestellt werden kann. Beispielsweise liegen in vitro die MIC-Werte von 1:1 Kombinationen der erfindungsgemässen Verbindung der Formel (I), worin R1 Hydroxy und R2 Carboxy bedeuten, oder des Natriumsalzes davon mit Ampicillin, Cefsulodin (CGP7174/E) oder Cefotiam (CGP14221/E) gegen eine Reihe der obengenannten ß-Lactamase produzierenden Mikroorganismen signifikant niedriger als die MIC-Werte der Einzelverbindungen. In vivo, beispielsweise bei subcutaner Applikation an Mäusen, die mit ß-Lactamase produzierenden Mikroorganismen infiziert wurden, z.B. mit Escherichia coli 205 R^+ TEM oder Morganella morganii 2359, wurde eine signifikante Erniedrigung der ED50-Werte gegenüber denjenigen der Einzelkomponenten festgestellt. Einige Werte sind in der folgenden Tabelle zusammengestellt: […]

The subject of assay [1] is Escherichia coli 205 R^+ TEM. The assay is described as above. Format: in vivo, Maus.
From the text: as §1

With `CN(C)CCn1nnnc1SCC1=C(C(=O)O)N2C(=O)[C@@H](NC(=O)Cc3csc(N)n3)[C@H]2SC1` [B, Cefotiam], the ED50 with Morganella morganii 2359 (Morganella morganii, sc, Maus) amounted to 75 mg/kg; in assay [1] (Escherichia coli, sc, read-out: s.c. ED50 (mg/kg, Maus)), 70 mg/kg.

With “(3R, 5R, 6R)-2,2-Dimethyl-6-hydroxymethylpenam-3-carbonsäure-1,1-dioxid-natriumsalz”, the “s.c. ED50 (mg/kg, Maus)” value was found to be 100 mg/kg in the assay on Morganella morganii 2359 and 100 mg/kg in assay [1] (Maus, s.c., infecting microorganism Esch.coli: 205 RT).
